For experiment [1], the target named is T1, Pseudomonas aeruginosa LpxC enzyme (Pseudomonas aeruginosa, UniProt P47205).
T1 construct: made in house; host or cells: E. coli
T1 sequence (P47205 1-303): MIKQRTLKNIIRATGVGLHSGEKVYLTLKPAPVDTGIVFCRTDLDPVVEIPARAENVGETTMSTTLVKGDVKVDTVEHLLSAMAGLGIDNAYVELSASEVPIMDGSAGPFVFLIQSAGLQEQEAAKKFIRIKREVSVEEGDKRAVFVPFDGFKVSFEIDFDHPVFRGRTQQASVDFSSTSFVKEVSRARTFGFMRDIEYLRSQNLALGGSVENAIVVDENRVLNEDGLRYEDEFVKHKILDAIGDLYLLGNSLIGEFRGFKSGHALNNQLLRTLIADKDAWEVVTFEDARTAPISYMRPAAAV
Kind of experiment: IC50 assay, LpxC enzyme from P. aeruginosa (PA LpxC enzyme IC50). Type of experiment: biochemical. The settings on record: Table 3; LpxC enzyme 0.1 nM, 25° C., 1 hour; read-out: PA:IC50. As for the experimental part:
In order to assess the compounds biological activity, selected in vitro assays were conducted on selected compounds. One of the assays measured the compounds ability to disrupt the synthesis of lipopolysaccharide, LPS, which is a component of the outer membrane of Gram-negative bacteria. Disruption of this synthesis is lethal to the bacteria. The assay determined the compound's ability to inhibit LpxC, which is the first enzyme in the biosynthetic pathway for LPS (measured as IC50). Additionally, MICs (minimal inhibitory concentrations) were determined for several bacteria. The specific protocols are described below:
A) IC50 Assay, LpxC Enzyme from P. aeruginosa (Labeled as PA LpxC Enzyme IC50):
At the end of 1 hour, 5 ul of 1 N HCl was added to stop the enzyme reaction, the plates were centrifuged, and then processed with the BioTrove Rapidfire HTMS Mass Spectrometry System. A no-enzyme control was used in calculating the IC50 values from the percent conversion values.

The test system of experiment [2] is Acinetobacter baumannii/haemolyticus, multidrug-resistant clinical isolate (AB-3167). As to the kind of experiment: MIC determination, AB-3167. Type of experiment: cell-based. The settings on record: Table 3, lower of duplicate values. As for the experimental part:
(§1) The in vitro antibacterial activity of compounds described in the Examples was evaluated by minimum inhibitory concentration (MIC) testing according to Clinical and Laboratory Standards Institute (CLSI). See: Clinical and Laboratory Standards Institute. Methods for Dilution Antimicrobial Susceptibility Tests for Bacteria that Grow Aerobically; Approved Standard-Eighth Edition. CLSI document M7-A8 [ISBN 1-56238-689-1]. Clinical and Laboratory Standards Institute, 940 West Valley Road, Suite 1400, Wayne, Pa. 19087-1898 USA, 2006; also Clinical and Laboratory Standards Institute. Performance Standards for Antimicrobial Susceptibility Testing; Twentieth Informational Supplement. CLSI document M100-S20 [ISBN 1-56238-716-2]. Clinical and Laboratory Standards Institute.
(§2) The MIC determination is a standard laboratory method for evaluating the antibacterial activity of a compound. The MIC represents the lowest drug concentration that inhibits visible growth of bacteria following overnight incubation. […] Typically, the drug concentration range is broken down into 2-fold increments (e.g. 0.06 μg/mL, 0.12 μg/mL. 0.25 μg/mL, 0.50 μg/mL, 1.0 μg/mL, etc.) and the various drug concentrations are all individually incubated overnight with approximately the same number of bacteria. The MIC is then determined by visually inspecting the drug effect at each concentration, and identifying the lowest drug concentration that has inhibited bacterial growth as compared to the drug free control. Typically, bacteria continue to grow at drug concentrations lower than the MIC and don't grow at concentrations at and above the MIC.
(§3) The MIC values described in Table 2 and 3 below were derived from assays wherein each test compound was evaluated in duplicate. In cases where the duplicate values varied by 0-2-fold, the lower of the two values was reported below. Generally speaking, if the duplicate values varied by more than 2-fold, the assay was considered non-valid and was repeated until the variation between duplicate runs was ≦2-fold. In line with the CLSI guidelines referred to above, both control organisms and reference compounds were utilized in each MIC assay to provide proper quality control. MIC values generated with these control organisms and reference compounds were required to fall within a defined range for the assay to be considered valid and be included herein. Those skilled in the art will recognize that MIC values can and do vary from experiment to experiment. Generally speaking, it should be recognized that MIC values often vary +/−2-fold from experiment to experiment. While a single MIC is reported for each compound and each microorganism, the reader should not conclude that each compound was only tested once. Several of the compounds were subjected to multiple tests. The data reported in Tables 2 and 3 is reflective of the compounds relative activity and different MICs may have been generated on these occasions in line with the guidelines described above.
(§4) The following bacterial strains were used in these MIC determinations:
2) Acinetobacter baumannii/haemolyticus: Multidrug-resistant clinical isolate labeled as AB-3167 in Tables 2 and 3;

The subject of experiment [3] is Escherichia coli EC-1: VOGEL, mouse virulent. Kind of experiment: MIC determination, EC-1. The experiment is classed as cell-based. As to conditions: Escherichia coli, read-out: EC-1 (MIC), Table 3, lower of duplicate values. As for the experimental part: as §1, §2, §3, §4
3) Escherichia coli EC-1: VOGEL, mouse virulent labeled as EC-1 in Tables 2 and 3;

Experiment [4] concerns PA:UC12120. Kind of experiment: MIC determination, PA:UC12120 (Table 3). Type of experiment: cell-based, Pseudomonas aeruginosa. As to conditions: Pseudomonas aeruginosa, UC12120, Table 3, lower of duplicate values. The method, then:
as §1, §2, §3
In Table 3 below, column 1 corresponds to the Example number, column 2 provides the IUPAC name, columns 3-6 provide in vitro biological data generated in the same manner as in Table 2, columns 7 and 8 provide the retention times and mass spectra generated via LCMS, using the method described below. All data is not currently available for all compounds, as indicated by a blank cell in Table 3.

This note sets out measurements from US8624034B2, “Fluoro-pyridinone derivatives useful as antibacterial agents” (Pfizer Inc., priority 2011, dated 2014).

pIC50: −log10 of the molar value. In brackets after ≈: the same amount, converted by molar mass. Where only a bound is given, the exact number is not on record here.

As usually defined, the pIC50 is the IC50 on a negative log10 scale, so that one unit is a factor of ten. Usually MIC stands for the least concentration at which growth counts as inhibited.

In the case of `CC(CCn1cc(F)c(-c2ccc(C#N)c(F)c2)cc1=O)(C(=O)NO)S(C)(=O)=O` (stereo not shown) [Example 58, 4-[4-(4-cyano-3-fluorophenyl)-5-fluoro-2-oxopyridin-1(2H)-yl]-N-hydroxy-2-methyl-2-(methylsulfonyl)butanamide], in experiment [1], the pIC50 was 8.59. The MIC is over 64 mg/L in experiment [2], 32 mg/L (≈ 75.2 µM) in experiment [3] and 8 mg/L (≈ 18.8 µM) in experiment [4].
For `CC(CCn1cc(F)c(-c2cnc3ccccc3c2)cc1=O)(C(=O)NO)S(C)(=O)=O` (stereo not shown) [Example 87, 4-(5-fluoro-2-oxo-4-quinolin-3-ylpyridin-1(2H)-yl)-N-hydroxy-2-methyl-2-(methylsulfonyl)butanamide], in that order: 8.21, over 64 mg/L, 16 mg/L (≈ 36.9 µM) and 8 mg/L (≈ 18.5 µM).
As for `CC(CCn1cc(F)c(-c2cccc(CC(N)=O)c2)cc1=O)(C(=O)NO)S(C)(=O)=O` (stereo not shown) [Example 123, 4-{4-[3-(2-amino-2-oxoethyl)phenyl]-5-fluoro-2-oxopyridin-1(2H)-yl}-N-hydroxy-2-methyl-2-(methylsulfonyl)butanamide], the MIC in experiment [2], in experiment [3] and in experiment [4] was over 64 mg/L in each case.
For the molecule `COc1ccc(-c2cc(=O)n(CCC(C)(C(=O)NO)S(C)(=O)=O)cc2F)cc1` (stereo not shown) [Example 59, 4-[5-fluoro-4-(4-methoxyphenyl)-2-oxopyridin-1(2H)-yl]-N-hydroxy-2-methyl-2-(methylsulfonyl)butanamide], the pIC50 in experiment [1] was 9.00. Besides, the results for the MIC in experiment [2], in experiment [3] and in experiment [4] were over 64 mg/L, 1 mg/L (≈ 2.42 µM) and 1 mg/L (≈ 2.42 µM), respectively.
`COc1ccc(-c2cc(=O)n(CCC(C)(C(=O)NO)S(C)(=O)=O)cc2F)cc1OC` (stereo not shown) [Example 98, 4-[4-(3,4-dimethoxyphenyl)-5-fluoro-2-oxopyridin-1(2H)-yl]-N-hydroxy-2-methyl-2-(methylsulfonyl)butanamide]: in experiment [1], the pIC50 was 7.55. The minimal inhibitory concentration (MIC) is over 64 mg/L in experiment [2], 64 mg/L (≈ 145 µM) in experiment [3] and 32 mg/L (≈ 72.3 µM) in experiment [4].
`CC(CCn1cc(F)c(-c2ccc(CCC#N)cc2)cc1=O)(C(=O)NO)S(C)(=O)=O` (stereo not shown) [Example 77, 4-{4-[4-(2-cyanoethyl)phenyl]-5-fluoro-2-oxopyridin-1(2H)-yl}-N-hydroxy-2-methyl-2-(methylsulfonyl)butanamide]: the pIC50 in experiment [1] was 8.59. Moreover, the MIC is over 64 mg/L in experiment [2], 32 mg/L (≈ 73.5 µM) in experiment [3] and 4 mg/L (≈ 9.19 µM) in experiment [4].
On the same counts, the results for `COc1cccc(-c2cc(=O)n(CCC(C)(C(=O)NO)S(C)(=O)=O)cc2F)c1F` (stereo not shown) [Example 118, 4-[5-fluoro-4-(2-fluoro-3-methoxyphenyl)-2-oxopyridin-1(2H)-yl]-N-hydroxy-2-methyl-2-(methylsulfonyl)butanamide] are 9.15, over 64 mg/L, 1 mg/L (≈ 2.32 µM) and 1 mg/L (≈ 2.32 µM).
Take `CC(CCn1cc(F)c(-c2cc(F)cc(Cl)c2)cc1=O)(C(=O)NO)S(C)(=O)=O` (stereo not shown) [Example 56, 4-[4-(3-chloro-5-fluorophenyl)-5-fluoro-2-oxopyridin-1(2H)-yl]-N-hydroxy-2-methyl-2-(methylsulfonyl)butanamide]: the pIC50 in experiment [1] was 8.70. The MIC in experiment [2] is over 64 mg/L; in experiment [3], 8 mg/L (≈ 18.4 µM); in experiment [4] it was 2 mg/L (≈ 4.6 µM).
On the same counts, the results for `CC(CCn1cc(F)c(-c2cccc(C#N)c2)cc1=O)(C(=O)NO)S(C)(=O)=O` (stereo not shown) [Example 82, 4-[4-(3-cyanophenyl)-5-fluoro-2-oxopyridin-1(2H)-yl]-N-hydroxy-2-methyl-2-(methylsulfonyl)butanamide] are 7.89, over 64 mg/L, 64 mg/L (≈ 157 µM) and 8 mg/L (≈ 19.6 µM).
Consider `CC(C)(C#N)c1ccc(-c2cc(=O)n(CCC(C)(C(=O)NO)S(C)(=O)=O)cc2F)cc1` (stereo not shown) [Example 60, 4-{4-[4-(1-cyano-1-methylethyl)phenyl]-5-fluoro-2-oxopyridin-1(2H)-yl}-N-hydroxy-2-methyl-2-(methylsulfonyl)butanamide], for which the pIC50 in experiment [1] is 8.41. Moreover, the values for the MIC in experiment [2], in experiment [3] and in experiment [4] were over 64 mg/L, 32 mg/L (≈ 71.2 µM) and 4 mg/L (≈ 8.9 µM), respectively.
Regarding `CC(CCn1cc(F)c(-c2cc[nH]n2)cc1=O)(C(=O)NO)S(C)(=O)=O` (stereo not shown) [Example 121, 4-[5-fluoro-2-oxo-4-(1H-pyrazol-3-yl)pyridin-1(2H)-yl]-N-hydroxy-2-methyl-2-(methylsulfonyl)butanamide], the MIC in experiment [2], in experiment [3] and in experiment [4] was over 64 mg/L in each case.
With `CCOc1cccc(-c2cc(=O)n(CCC(C)(C(=O)NO)S(C)(=O)=O)cc2F)c1` (stereo not shown) [Example 112, 4-[4-(3-ethoxyphenyl)-5-fluoro-2-oxopyridin-1(2H)-yl]-N-hydroxy-2-methyl-2-(methylsulfonyl)butanamide], the pIC50 in experiment [1] was 8.51. In addition, the results for the MIC in experiment [2], in experiment [3] and in experiment [4] were over 64 mg/L, 2 mg/L (≈ 4.69 µM) and 4 mg/L (≈ 9.38 µM), respectively.
On the same counts, the results for `CCOc1ccc(-c2cc(=O)n(CCC(C)(C(=O)NO)S(C)(=O)=O)cc2F)cc1F` (stereo not shown) [Example 95, 4-[4-(4-ethoxy-3-fluorophenyl)-5-fluoro-2-oxopyridin-1(2H)-yl]-N-hydroxy-2-methyl-2-(methylsulfonyl)butanamide] are 8.92, 64 mg/L (≈ 144 µM), 1 mg/L (≈ 2.25 µM) and 2 mg/L (≈ 4.5 µM).
As to `CC(CCn1cc(F)c(-c2ccc(CO)nc2)cc1=O)(C(=O)NO)S(C)(=O)=O` (stereo not shown) [Example 85, 4-[5′-fluoro-6-(hydroxymethyl)-2′-oxo-3,4′-bipyridin-1′(2′H)-yl]-N-hydroxy-2-methyl-2-(methylsulfonyl)butanamide], the pIC50 in experiment [1] was under 7.00. The minimal inhibitory concentration (MIC) in experiment [2], in experiment [3] and in experiment [4] was over 64 mg/L in each case.
In the case of `CC(CCn1cc(F)c(-c2cccc(CO)c2F)cc1=O)(C(=O)NO)S(C)(=O)=O` (stereo not shown) [Example 122, 4-{5-fluoro-4-[2-fluoro-3-(hydroxymethyl)phenyl]-2-oxopyridin-1(2H)-yl}-N-hydroxy-2-methyl-2-(methylsulfonyl)butanamide], the pIC50 in experiment [1] was 8.62.
`CC(CCn1cc(F)c(-c2ccc(F)c(CO)c2)cc1=O)(C(=O)NO)S(C)(=O)=O` (stereo not shown) [Example 105, 4-{5-fluoro-4-[4-fluoro-3-(hydroxymethyl)phenyl]-2-oxopyridin-1(2H)-yl}-N-hydroxy-2-methyl-2-(methylsulfonyl)butanamide]: the MIC in experiment [2], in experiment [3] and in experiment [4] was over 64 mg/L in each case.
